Source: a melting point compilation (Tetko et al.; mined from patent text by program, amines drawn as free bases though some values may be those of a salt)

melting point	SMILES
121 to 125 °C	CCCc1c(OCc2ccc(C=CC(=O)OC)cc2)ccc(C(C)=O)c1O
181 to 183 °C	O=[N+]([O-])c1cn2c(n1)OC[C@@H](OCc1cnc(Cl)cn1)C2
132 °C	Cc1nn(C(=O)NC(C)(C)C)c(=O)n1N
70 °C	COc1ccc(C2CSc3ccccc3N(CCCl)C2=O)cc1 (stereo not drawn)
165 to 166 °C	NC(=O)c1cc(F)cc(-c2cccc3cc(Cc4cccc(C(F)(F)F)c4)sc23)c1
177 to 179 °C	Cc1nc2c(OCc3ccccc3)cc(Br)cc2n1C
89 °C	CCCCCC[C@H](C)COC(=O)c1ccc(-c2ccc(O)cc2)cc1
199 to 202 °C	Cc1nnc2ccc(-c3cccnc3)cn12
216 to 218 °C	CCn1nc(C#N)c(=O)c2ccccc21
121 to 122 °C	O=c1cc(C(F)(F)F)ccn1-c1c(Cl)cc(CF)cc1Cl
89 to 92 °C	CCOCn1c(C(F)(F)F)nc2cc(Cl)c(Cl)cc21
100 °C	COc1ccccc1-c1cc(F)cc2c1O[C@@H](CN)CC2
163 to 165 °C	O=C(Cl)c1c(Cl)c(Cl)c(Cl)c2c(Cl)c(Cl)c(Cl)c(Cl)c12
290 to 293 °C	CC(C)c1nc2c([nH]1)c(=S)[nH]c(=O)n2-c1cccc(Cl)c1
> 260 °C	O=C(O)c1ccc(C(=O)/C=C/c2ccc(-c3cccs3)cc2F)cc1
127 to 128 °C	CCCc1nc2c(N)nc3cc(OCCCCCCNC(=O)c4ccc(N=[N+]=[N-])cc4O)ccc3c2s1
84 to 86 °C	CCOC(=O)c1cc(=O)c(C(=O)c2ccccc2)co1
184 to 185 °C	COC(=O)Nc1c(C(=O)OC)[nH]c2c(C)ccc(C)c12
165 to 167 °C	COc1ccc2c(c1)c(N1CCN(C)CC1)nn2S(=O)(=O)c1ccccc1
171 to 174 °C	O=CN1CCC(O)(c2ccccc2Cc2ccccc2)CC1
100 to 101 °C	CCCC(=O)c1cnc2c(C)cccc2c1Nc1c(C)cccc1C
77 to 79 °C	N#CCSc1ccc([N+](=O)[O-])cc1
84 to 85 °C	COC(=O)c1c2c(c3c(C)c(OC)c(OC)c(OC)c3c1-c1ccc(OC)c(OC)c1)OCOC2=O
205 to 235 °C	COc1cc(Nc2c(C#N)cnc3cc4cc(OC)c(OCCN5CCC(O)CC5)cc4cc23)c(Cl)cc1C
79 to 81 °C	Cc1cc(SCc2cccc3cn(-c4ccc(C(F)(F)F)cc4)nc23)ccc1OCC(=O)O
59 to 72 °C	CCN(CC)c1ccc(N(c2ccc(N(CC)CC)cc2)C2(c3ccc(N(C)C)cc3C)OC(=O)c3ccccc32)cc1 (stereo not drawn)
170 to 172 °C	COC(=O)CN(C)C(=O)c1c2ccc(Cl)ccc-2[nH]c1=O
148 °C	CCCCCCCCOc1ccc2c(c1CCC)OC(CCC(=O)O)(CCC(=O)O)CC2=O
120 to 122 °C	Cc1ccc(-c2ccccc2-c2n[nH]c(C(c3ccccc3)(c3ccccc3)c3ccccc3)n2)cc1

The remaining lines, values behind:

SMILES	melting point
O=C(NCc1cccnc1)c1ccc2n1Cc1ccccc1N(C(=O)Cc1ccc(Cl)cc1)C2	83 °C
Cc1ccc(C)c(Cn2[nH]c(N)cc2=O)c1	124 °C
O=C(CS(=O)(=O)N1CC=C(c2ccc(-c3ccccc3)cc2)CC1)NO	216 to 218 °C
O=C(CCCI)ON1C(=O)CCC1=O	86 to 87 °C
Cn1nc(-c2ccc(Cl)c(NS(C)(=O)=O)c2)c2ccccc2c1=O	234 to 236 °C
COc1ccc(C(OC(C)=O)c2sccc2C=O)cc1OC (stereo not drawn)	91 to 92 °C
CC1(C)C=C(c2ccncc2O)c2ccccc2O1	228 to 230 °C
NC(=O)c1cc(C(c2c(F)ccc(F)c2F)S(=O)(=O)CCC(F)(F)F)c(Cl)cn1 (stereo not drawn)	237 to 239 °C
COC[C@@H]1[C@@H](c2ccc(Cl)c(Cl)c2)C[C@@H]2CC[C@H]1N2C	73 to 76 °C
CC[C@@H](C[C@H](O)[C@H](CC1CCCCC1)NC(=O)[C@H](Cc1c[nH]cn1)NC[C@H](Cc1ccccc1)NC(=O)OC(C)(C)C)C(C)C	144 °C
C=CCOC(=O)c1ccc(COC(=O)c2cc(C(C)(C)C)c(O)c(C(C)(C)C)c2)cc1	100 to 101 °C
CCNC(=O)n1nc(Oc2ccc(N)c(C(F)(F)F)c2)cc1C	102 to 104 °C
O=S1(=O)CCN2C=CC=C(c3ccc(Oc4ccc(O)cc4)cc3)C2=N1	289 to 290 °C
CCOC(=O)C(C(=O)C(C)C)C(c1ccc(F)cc1)c1ccccn1 (stereo not drawn)	106 to 108 °C
O=c1c2ccccc2cc2sccn12	135 to 136 °C
O=C(Nc1cccc2c1C(=O)c1c-2n[nH]c1C1CCN(C(=O)N2CCNCC2)CC1)NN1CCOCC1	195 to 197 °C
CNC(=O)C(Cc1ccc(OC)cc1)NC(=O)C(CC(C)C)C(CC(=O)OC(C)(C)C)SC(C)=O (stereo not drawn)	147 to 151 °C
COc1cc(C)c(C(=O)c2c(C)cccc2OC)c(OC)c1OC	84 °C
CC(NC(=O)c1ccc(I)cc1)C(O)c1ccccc1 (stereo not drawn)	209 to 210 °C
O=Cc1c[nH]c(-c2cccs2)c1	198 to 199 °C
CNC(=S)NS(=O)(=O)c1cc(CCNC(=O)c2cnc3ccccc3c2)ccc1OCCOCC(F)(F)F	115 to 120 °C
NS(=O)(=O)Cc1cccc(NC(=O)c2cnn3c(C(F)(F)F)cc(-c4ccc(C(F)(F)F)cc4)nc23)c1	298 °C
OCCN1c2ccccc2Oc2ccccc21	113 to 115 °C

SMILES	melting point
CCCCCCCCCCCC/C=C/c1ccc2c(c1)OCO2	34 to 36 °C
Cc1noc(C)c1C(=O)Nc1ccc(-n2nc(C3CC3)cc2C2CC2)c(F)c1	166 to 168 °C
O=C(O)c1ccc(OC(=O)c2cccc(C(=O)Oc3ccc(C(=O)O)cc3)c2)cc1	290 to 300 °C
Nc1ncccc1C(=O)NCC1CCN(C[C@H]2COc3cccc(C(F)(F)F)c3O2)CC1	101 to 103 °C
CCC(Oc1ccccc1C(C)(C)C)C(=O)OC1CC(O)C=C2C=CC(C)C(CCC3CC(O)CC(=O)O3)C21 (mixture of isomers)	176 to 178 °C
Oc1cccc2c1CCC(O)C2 (stereo not drawn)	126 to 128 °C
O=C(O)c1cc2cc(O)c(O)cc2nc1C(=O)O	> 300 °C
CCCN1CCC=C(c2cccc3[nH]cc(Br)c23)C1	156 °C
CC(=O)Nc1cccc(C)c1C(=O)O	189 to 190 °C
CNC(=O)Oc1cccc(C2CCCN2C(=O)c2ccccc2)c1 (stereo not drawn)	117 to 121 °C
COc1cc2c(cc1O)CCN(C(=O)c1ccc(OC)c(OC)c1)C2	132 to 133 °C
CN1C(=O)[C@H](NC(=O)CNc2ccccc2)N=C(c2ccccc2)c2ccccc21	245 to 246 °C
C#CCOc1ccc(C=NOC)cc1OC	68 to 69 °C
Cc1nc(-c2cnc3[nH]cc(C(=O)N[C@@H](C(=O)N4CC(C#N)C4)C(C)(C)C)c3n2)cn1-c1cccc(F)c1	171 to 176 °C
COc1ccc(CN(C(=O)C2CCCc3ccc(OC)cc32)c2ccc(OC)cc2)cc1 (stereo not drawn)	89 to 90 °C
CCOC(=O)c1c(Cl)c(CC)c(C)[nH]c1=O	167 °C
N#CC(=NOS(=O)(=O)c1ccc(O)cc1)c1ccccc1	148 °C
Cn1nnc2cccc(S(N)(=O)=O)c21	198 to 200 °C
O=C(OC1CCCCC1)C(c1ccccc1)n1cnc2[nH]ncc2c1=O (stereo not drawn)	176 to 180 °C
CCOP(=O)(CCN1CCC(N(CCN)S(=O)(=O)c2ccc(Nc3nccc(Nc4ccc(F)c(F)c4)n3)cc2)CC1)OCC	88 to 90 °C
COc1ccc(OC(=O)c2c3ccccc3nc3ccccc23)cc1	202 to 203 °C
COC(=O)C(Cc1ccc(C#N)cc1)C(=O)c1ccc(C#N)cc1 (stereo not drawn)	154 to 157 °C
CCCn1nc2c(N)nc3ccccc3c2c1CCNC(=O)Nc1ccc(F)cc1	201 to 202 °C

SMILES	melting point
CC1(C)OC(=O)Nc2ccc(-c3cncc(Br)c3)cc21	211 to 212 °C
CON(C(=O)c1ccc(C(=O)C(C)(C)C)cc1)C(=O)c1ccc(C(=O)C(C)(C)C)cc1	103 to 105 °C
CNC(=S)n1nc(NC(=O)c2ccccc2)nc1N	> 300 °C
CCc1ccc2c(c1)[C@@H](N1CCCC1=O)[C@H](O)C(C)(C)O2 (relative stereo)	154 to 163 °C
Cc1cc(OCc2coc(/C=C/c3ccc(OC(F)(F)F)cc3)n2)ccc1CCCCc1cn(C(c2ccccc2)(c2ccccc2)c2ccccc2)nn1	135 to 136 °C
Nc1ccc(S(=O)(=O)Nc2nnc(CO)s2)cc1	89 to 90 °C
Clc1ccc2c(c1)Oc1ccccc1C=C2CBr	117 to 119 °C
CCN(CC)C(=O)c1cc(OC)c(OC)cc1-c1c(C(=O)N(CC)CC)ccc2c1OCO2	148 to 149 °C
COc1ccc(C(=O)NNC(C)=O)cc1	146 to 148 °C
CN(O)C(=O)Nc1ccc(Cl)c(C(F)(F)F)c1	114 to 115 °C
CCc1cc(CCNc2ncnc3c(F)ccc(F)c23)ccc1Oc1cc(C(F)(F)F)ccn1	121 to 122 °C
Nc1ncnc2c1ncn2[C@@H]1C[C@H](O)[C@@H](O)[C@H]1O (racemic)	282 °C
COc1ccc(CC(=O)O)cc1OC1CCCC1	79 to 80 °C
COc1ccc2c(c1)C(=O)C(=CCC(=O)OC(C)(C)C)CC2	76 °C
O=C1OC2(CCN(C(=O)Nc3ncc(-c4ccccc4)cn3)CC2)c2cccc(F)c21	247 to 249 °C
Cc1cccc(-c2nc(NC(=O)c3ccc(Cl)nc3)sc2-c2ccnc(NC3CCCC3)c2)c1	211 to 212 °C
NS(=O)(=O)c1cc(S(=O)(=O)N(N2CCCCC2)N2CCCCC2)c(Cl)cc1Cl	170 °C
Cc1ccc2c(c1)C=Cc1cc(C)ccc1C2c1cn(Cc2nc(C(=O)N[C@@H](CC(=O)O)C(=O)O)cs2)c(=O)[nH]c1=S	175 °C
CC(C)CC(=O)Nc1cncc(-c2ccnc3c(C(=O)c4cccs4)cnn23)c1	217 to 219 °C
O=C1C(=O)N2CCCc3cc([N+](=O)[O-])cc1c32	198 to 199 °C
Cc1cc2c3c(cc(C)c2[nH]c1=O)C(C)C(C)(CN=[N+]=[N-])O3 (stereo not drawn)	189 to 192 °C
Cc1cc(Cc2ccc(C(=O)O)cc2)n(C)c1C(=O)c1ccc(Cl)cc1	245 to 247 °C
O=C(CCCc1ccccc1)OCCCCCCCCCCCCNCC(O)c1ccccc1 (stereo not drawn)	73 to 74 °C
